From the supplement of paper PMC4862054

Legend:
Test in all cases: normalised viability (% of control), CellTiter-Blue; higher = more viable cells (about 100 = DMSO control)
BT-474 [1] = settings: 100 nM; incubation time: 72 h
Description: (§1)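 DSRT, CellTiter-Blue viability, 72 h incubation. Signal is normalised to DMSO and benzethonium chloride controls. Value is the normalised response at dose 3.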

BT-549 [2] = settings: 100 nM; incubation time: 72 h
Description: as §1

CAL-120 = settings: 100 nM; incubation time: 72 h
Description: as §1

CAL-148 [3] = settings: 10 nM; incubation time: 72 h
Description: as §1

CAL-51 = settings: 10 nM; incubation time: 72 h
Description: as §1

CAL-85-1 = settings: 10 nM; incubation time: 72 h
Description: as §1

DU-4475 [4] = settings: 10 nM; incubation time: 72 h
Description: as §1

HCC1143 [5] = settings: 100 nM; incubation time: 72 h
Description: as §1

HCC1599 = settings: 100 nM; incubation time: 72 h
Description: as §1

HCC1937 [6] = settings: 100 nM; incubation time: 72 h
Description: as §1

HDQ-P1 [7] = settings: 10 nM; incubation time: 72 h
Description: as §1

Hs578T = settings: 100 nM; incubation time: 72 h
Description: as §1

MDA-MB-231 [8] = settings: 100 nM; incubation time: 72 h
Description: as §1

MDA-MB-436 = settings: 100 nM; incubation time: 72 h
Description: as §1

MDA-MB-453 [9] = settings: 10 nM; incubation time: 72 h
Description: as §1

MDA-MB-468 = settings: 100 nM; incubation time: 72 h
Description: as §1

MFM-223 [10] = settings: 100 nM; incubation time: 72 h
Description: as §1

SK-BR-3 [11] = settings: 100 nM; incubation time: 72 h
Description: as §1

BT-474 [12] = settings: incubation time: 72 h
Procedure, shortened: (§2)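 Vehicle (100) and a positive kill control (0) anchored the normalisation of each plate, and Z'-factor was used for quality control. Breast cancer cell lines in 20 µl suspension were incubated 72 h over compound in 5 µl medium in 384-well plates, followed by CellTiter-Blue at 560/590 nm. The value is normalised viability at a single listed concentration of the series.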

BT-549 [13] = settings: incubation time: 72 h
Procedure, shortened: as §2

CAL-148 [14] = settings: incubation time: 72 h
Procedure, shortened: as §2

DU-4475 [15] = settings: incubation time: 72 h
Procedure, shortened: as §2

HCC1143 [16] = settings: incubation time: 72 h
Procedure, shortened: as §2

HCC1937 [17] = settings: incubation time: 72 h
Procedure, shortened: as §2

HDQ-P1 [18] = settings: incubation time: 72 h
Procedure, shortened: as §2

MDA-MB-231 [19] = settings: incubation time: 72 h
Procedure, shortened: as §2

MDA-MB-453 [20] = settings: incubation time: 72 h
Procedure, shortened: as §2

MFM-223 [21] = settings: incubation time: 72 h
Procedure, shortened: as §2

SK-BR-3 [22] = settings: incubation time: 72 h
Procedure, shortened: as §2

Cc1sc2c(c1C)C(c1ccc(Cl)cc1)=N[C@@H](CC(=O)OC(C)(C)C)c1nnc(C)n1-2 [(+)JQ1]
Settings | normalised viability [%]
BT-474 [1] | 110
BT-549 [2] | 80.9
CAL-51 | 98.5
CAL-85-1 | 101
CAL-120 | 79.1
CAL-148 [3] | 94.7
DU-4475 [4] | 88.3
HCC1143 [5] | 92.2
HCC1599 | 100
HCC1937 [6] | 98.4
HDQ-P1 [7] | 98.4
Hs578T | 72.6
MDA-MB-231 [8] | 95.9
MDA-MB-436 | 136
MDA-MB-453 [9] | 108
MDA-MB-468 | 108
MFM-223 [10] | 85.1
SK-BR-3 [11] | 98.3

normalised viability [%]
Settings | 3 nM | 10 nM | 30 nM | 100 nM | 1000 nM | 10000 nM
BT-474 [12] | – | 118 | – | – | 95.1 | 102
BT-549 [13] | – | 108 | – | – | 53.8 | 36.9
CAL-148 [14] | 95.7 | – | 103 | 97.3 | – | –
DU-4475 [15] | 104 | – | 77.6 | 90.1 | – | –
HCC1143 [16] | – | 91.1 | – | – | 67.6 | 58.7
HCC1937 [17] | – | 109 | – | – | 62.9 | 55.9
HDQ-P1 [18] | 102 | – | 113 | 107 | – | –
MDA-MB-231 [19] | – | 107 | – | – | 32.8 | 35.9
MDA-MB-453 [20] | 111 | – | 107 | 84.5 | – | –
MFM-223 [21] | – | 99.3 | – | – | 54 | 45.4
SK-BR-3 [22] | – | 117 | – | – | 53.9 | 51.8

COc1cc(F)c(F)c(Nc2ccc(I)cc2F)c1NS(=O)(=O)C1(C[C@H](O)CO)CC1 [RDEA119]
Settings | normalised viability [%]
BT-474 [1] | 98.7
BT-549 [2] | 77.4
CAL-51 | 91.2
CAL-85-1 | 97.3
CAL-120 | 93.7
CAL-148 [3] | 93.6
DU-4475 [4] | 86
HCC1143 [5] | 90.8
HCC1599 | 87.4
HCC1937 [6] | 87.7
HDQ-P1 [7] | 74.8
Hs578T | 76
MDA-MB-231 [8] | 45
MDA-MB-436 | 90.4
MDA-MB-453 [9] | 78.3
MDA-MB-468 | 86.1
MFM-223 [10] | 85
SK-BR-3 [11] | 90.7

normalised viability [%]
Settings | 3 nM | 10 nM | 30 nM | 100 nM | 1000 nM | 10000 nM
BT-474 [12] | – | 108 | – | – | 103 | 110
BT-549 [13] | – | 98.7 | – | – | 87.5 | 66.4
CAL-148 [14] | 91.9 | – | 80.7 | 80 | – | –
DU-4475 [15] | 91.4 | – | 61.2 | 28.2 | – | –
HCC1143 [16] | – | 117 | – | – | 62.8 | 61.7
HCC1937 [17] | – | 102 | – | – | 72.4 | 62.8
HDQ-P1 [18] | 81.5 | – | 88 | 110 | – | –
MDA-MB-231 [19] | – | 73.7 | – | – | 28.7 | 29.3
MDA-MB-453 [20] | 87.9 | – | 95.5 | 98.7 | – | –
MFM-223 [21] | – | 94.8 | – | – | 75.7 | 54.7
SK-BR-3 [22] | – | 110 | – | – | 81.8 | 100
